{
  "source": "ChEMBL document CHEMBL4038324",
  "about": "“Amidoalkylindoles as Potent and Selective Cannabinoid Type 2 Receptor Agonists with in Vivo Efficacy in a Mouse Model of Multiple Sclerosis” (J Med Chem, 2017)",
  "key": {"[1]": {"biological_target": "T1, Cannabinoid receptor 2 (Homo sapiens, UniProt P34972)", "T1 sequence (P34972 whole entry)": "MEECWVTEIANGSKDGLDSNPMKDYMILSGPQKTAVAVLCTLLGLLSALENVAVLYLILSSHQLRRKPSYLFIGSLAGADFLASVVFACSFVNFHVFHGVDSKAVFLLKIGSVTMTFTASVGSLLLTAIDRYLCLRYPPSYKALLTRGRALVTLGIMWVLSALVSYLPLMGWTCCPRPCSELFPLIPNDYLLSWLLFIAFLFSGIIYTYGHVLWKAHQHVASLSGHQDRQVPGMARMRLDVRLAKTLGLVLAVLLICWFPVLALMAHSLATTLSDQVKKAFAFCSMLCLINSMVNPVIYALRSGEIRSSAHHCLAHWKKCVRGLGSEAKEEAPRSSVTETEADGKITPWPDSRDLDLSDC", "experiment": "Agonist activity at human N-terminal HA-tagged CB2 receptor expressed in mouse AtT20 cells by FLIPR membrane potential assay", "type": "cell-based"}, "[2]": {"biological_target": "T2, Cannabinoid receptor 1 (Homo sapiens, UniProt P21554)", "T2 sequence (P21554 whole entry)": "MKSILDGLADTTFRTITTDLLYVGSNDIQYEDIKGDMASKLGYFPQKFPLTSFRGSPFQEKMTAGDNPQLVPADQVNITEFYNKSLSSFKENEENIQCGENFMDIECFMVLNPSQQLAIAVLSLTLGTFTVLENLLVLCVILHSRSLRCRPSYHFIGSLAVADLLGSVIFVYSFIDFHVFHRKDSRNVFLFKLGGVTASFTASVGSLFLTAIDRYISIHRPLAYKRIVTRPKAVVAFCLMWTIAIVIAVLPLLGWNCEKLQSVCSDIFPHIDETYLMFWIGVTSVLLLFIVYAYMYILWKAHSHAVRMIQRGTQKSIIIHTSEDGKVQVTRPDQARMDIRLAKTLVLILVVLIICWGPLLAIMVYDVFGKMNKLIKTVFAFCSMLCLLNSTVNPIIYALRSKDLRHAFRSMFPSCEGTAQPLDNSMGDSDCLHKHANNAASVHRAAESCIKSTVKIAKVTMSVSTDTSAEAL", "experiment": "Agonist activity at human CB1 receptor expressed in CHO cells assessed as induction of Ca2+ flux after 10 mins by Fluor-4 AM dye based assay", "type": "cell-based"}, "[3]": {"biological_target": "Cannabinoid receptor 1 (Rattus norvegicus, UniProt P20272)", "sequence (P20272 whole entry)": "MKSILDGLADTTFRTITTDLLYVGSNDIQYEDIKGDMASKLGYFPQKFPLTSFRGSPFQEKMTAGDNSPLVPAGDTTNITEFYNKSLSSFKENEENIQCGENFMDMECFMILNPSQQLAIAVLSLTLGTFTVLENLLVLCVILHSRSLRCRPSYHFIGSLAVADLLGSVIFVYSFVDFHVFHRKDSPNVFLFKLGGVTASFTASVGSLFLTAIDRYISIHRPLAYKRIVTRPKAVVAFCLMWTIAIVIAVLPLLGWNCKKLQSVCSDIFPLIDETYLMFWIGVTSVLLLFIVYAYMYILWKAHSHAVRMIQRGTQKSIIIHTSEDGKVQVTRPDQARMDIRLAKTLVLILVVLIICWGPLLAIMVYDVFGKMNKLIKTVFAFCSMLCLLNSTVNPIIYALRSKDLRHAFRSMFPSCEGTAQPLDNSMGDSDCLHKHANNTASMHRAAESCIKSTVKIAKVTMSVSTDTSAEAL", "experiment": "Agonist activity at rat CB1 receptor expressed in mouse AtT20 cells by FLIPR membrane potential assay", "type": "cell-based"}, "[4]": {"biological_target": "T1, Cannabinoid receptor 2", "experiment": "Agonist activity at human CB2 receptor expressed in CHO cells assessed as induction of Ca2+ flux after 10 mins by Fluor-4 AM dye based assay relative to CP55940", "type": "functional, cell-based"}, "[5]": {"biological_target": "T1, Cannabinoid receptor 2", "experiment": "Antagonist activity at human CB2 receptor expressed in CHO cells assessed as inhibition of CP55940-induced Ca2+ flux at 10 uM preincubated for 10 mins followed by agonist addition by Fluor-4 AM dye based assay", "type": "functional, cell-based"}, "[6]": {"biological_target": "T3, Cannabinoid receptor 1 (CB1) (Homo sapiens, UniProt P21554)", "T3 sequence (P21554 whole entry)": "as the sequence (P21554 whole entry) above", "experiment": "Agonist activity at human CB1 receptor expressed in CHO cells assessed as induction of Ca2+ flux after 10 mins by Fluor-4 AM dye based assay relative to CP55940", "type": "cell-based", "settings": "CHO cells expressing human CB1 receptor"}, "[7]": {"biological_target": "T3, Cannabinoid receptor 1 (CB1)", "experiment": "Antagonist activity at human CB1 receptor expressed in CHO cells assessed as inhibition of CP55940-induced Ca2+ flux at 10 uM preincubated for 10 mins followed by agonist addition by Fluor-4 AM dye based assay", "type": "cell-based", "settings": "CHO cells expressing human CB1 receptor"}, "[8]": {"biological_target": "T1, Cannabinoid receptor 2", "experiment": "Agonist activity at human CB2 receptor expressed in CHO cells assessed as induction of Ca2+ flux after 10 mins by Fluor-4 AM dye based assay", "type": "functional, cell-based"}, "[9]": {"tested_on": "Mus musculus", "experiment": "AUMC (0 to t) in C57 mouse at 10 mg/kg, ip measured up to 2 hrs by LC-MS/MS analysis", "type": "ADME, organism-based", "settings": "in vivo"}, "[10]": {"tested_on": "Mus musculus", "experiment": "In vivo partial agonist activity at CB2 receptor in EAE C57BL/6 mouse model assessed as reduction in leukocyte infiltration in white matter region at 10 to 30 mg/kg, ip administered from day 3 after immunization with MOG until day 19 by H and E staining based assay", "type": "functional, organism-based"}, "[11]": {"experiment": "Half life in C57 mouse at 10 mg/kg, ip measured up to 2 hrs by LC-MS/MS analysis", "type": "ADME, organism-based", "settings": "in vivo"}, "[12]": {"tested_on": "Mus musculus", "experiment": "AUMC (0 to infinity) in C57 mouse at 10 mg/kg, ip measured up to 2 hrs by LC-MS/MS analysis", "type": "ADME, organism-based", "settings": "in vivo"}, "[13]": {"experiment": "Cmax in C57 mouse at 10 mg/kg, ip measured up to 2 hrs by LC-MS/MS analysis", "type": "ADME, organism-based", "set-up": "dose 10 mg/kg, route intraperitoneal", "settings": "in vivo"}, "[14]": {"experiment": "Ratio of Cmax in C57 mouse at 10 mg/kg, ip to EC50 for human CB2 receptor expressed in CHO cells assessed as induction of Ca2+ flux"}, "[15]": {"experiment": "Tmax in C57 mouse at 10 mg/kg, ip measured up to 2 hrs by LC-MS/MS analysis", "type": "ADME, organism-based", "settings": "in vivo"}, "[16]": {"experiment": "MRT in C57 mouse at 10 mg/kg, ip measured up to 2 hrs by LC-MS/MS analysis", "type": "ADME, organism-based", "settings": "in vivo"}, "[17]": {"experiment": "AUC (0 to infinity) in C57 mouse at 10 mg/kg, ip measured up to 2 hrs by LC-MS/MS analysis", "type": "ADME, organism-based", "set-up": "dose 10 mg/kg, time infinity, route intraperitoneal", "settings": "in vivo"}, "[18]": {"tested_on": "Mus musculus", "experiment": "In vivo partial agonist activity at CB2 receptor in EAE C57BL/6 mouse model assessed as reduction in clinical signs at 10 to 30 mg/kg, ip administered from day 3 after immunization with MOG until day 27", "type": "functional, organism-based"}, "[19]": {"experiment": "AUC (0 to t) in C57 mouse at 10 mg/kg, ip measured up to 2 hrs by LC-MS/MS analysis", "type": "ADME, organism-based", "set-up": "dose 10 mg/kg, time < 2 hr, route intraperitoneal", "settings": "in vivo"}, "[20]": {"biological_target": "T2, Cannabinoid receptor 1", "experiment": "Agonist activity at human CB1 receptor expressed in CHO cells assessed as induction of Ca2+ flux at 10 uM after 10 mins by Fluor-4 AM dye based assay", "type": "cell-based"}, "[21]": {"tested_on": "Mus musculus", "experiment": "In vivo partial agonist activity at CB2 receptor in EAE C57BL/6 mouse model assessed as reduction in extensive demyelination in white matter at 10 to 30 mg/kg, ip administered from day 3 after immunization with MOG until day 19 by Luxol fast blue staining based assay", "type": "functional, organism-based"}, "[22]": {"experiment": "Elimination rate constant in C57 mouse at 10 mg/kg, ip measured up to 2 hrs by LC-MS/MS analysis", "type": "ADME, organism-based", "settings": "in vivo"}, "[23]": {"biological_target": "T1, Cannabinoid receptor 2", "experiment": "Agonist activity at human CB2 receptor expressed in CHO cells assessed as inhibition of forskolin-induced cAMP accumulation preincubated for 20 mins followed by forskolin addition measured after 30 mins by HTRF assay", "type": "functional, cell-based"}},
  "note": "Activity calls are given as the source filed them. No cut-off for these calls is given here.",
  "data": [
    {"smiles": "CCCCCn1cc(C(=O)NC23CC4CC(CC(C4)C2)C3)c2ccccc21", "values": [
      {"measurement": "EC50", "setting": "[1]", "value": 29, "unit": "nM"},
      {"measurement": "EC50", "setting": "[2]", "value": 39, "unit": "nM"},
      {"measurement": "EC50", "setting": "[3]", "value": 34, "unit": "nM"},
      {"measurement": "Emax", "setting": "[4]", "value": 66.3, "unit": "%"},
      {"measurement": "inhibition", "setting": "[5]", "value": "< 50", "unit": "%"},
      {"measurement": "Emax at 10 min", "setting": "[6]", "value": 68.3, "unit": "%"},
      {"measurement": "inhibition at 10 min, 10 µM", "setting": "[7]", "value": "< 50", "unit": "%"},
      {"measurement": "EC50", "setting": "[8]", "value": 59, "unit": "nM"}
    ]},
    {"smiles": "O=C(NC12CC3CC(CC(C3)C1)C2)c1cc2ccccc2n1CCCCO", "values": [
      {"measurement": "AUMCt", "setting": "[9]", "value": 248, "unit": "hr.hr.ng/ml"},
      {"measurement": "Activity", "setting": "[10]", "value": "Active"},
      {"measurement": "half-life", "setting": "[11]", "value": 62.4, "unit": "min"},
      {"measurement": "AUMC", "setting": "[12]", "value": 637, "unit": "hr.hr.ng/ml"},
      {"measurement": "Cmax", "setting": "[13]", "value": 350, "unit": "ng/mL"},
      {"measurement": "Ratio", "setting": "[14]", "value": 8},
      {"measurement": "Tmax", "setting": "[15]", "value": 15, "unit": "min"},
      {"measurement": "Emax", "setting": "[4]", "value": 85, "unit": "%"},
      {"measurement": "MRT", "setting": "[16]", "value": 1.51, "unit": "h"},
      {"measurement": "AUC(0-inf)", "setting": "[17]", "value": 428, "unit": "ng·h/mL"},
      {"measurement": "inhibition", "setting": "[5]", "value": "< 50", "unit": "%"},
      {"measurement": "Activity", "setting": "[18]", "value": "Active"},
      {"measurement": "AUC(0-t) at 2 h", "setting": "[19]", "value": 317, "unit": "ng·h/mL"},
      {"measurement": "Activity", "setting": "[20]", "value": "< 50", "unit": "%"},
      {"measurement": "Activity", "setting": "[21]", "value": "Active"},
      {"measurement": "inhibition at 10 min, 10 µM", "setting": "[7]", "value": "< 50", "unit": "%"},
      {"measurement": "EC50", "setting": "[8]", "value": 120, "unit": "nM"},
      {"measurement": "k el at 2 h", "setting": "[22]", "value": 0.000189, "unit": "s⁻¹"},
      {"measurement": "EC50", "setting": "[23]", "value": 142, "unit": "nM"}
    ]}
  ]
}
